Assay results: patent EP2020447A1, “Method for identifying compounds modulating adiponectin gene expression” (priority 2007, dated 2009)

Key:
[1] = test system: human adiponectin gene promoter; assay: Luciferase reporter screening assay in C2C12 cells stably expressing the adiponectin promoter construct; type: cell-based; settings: for concentration at which the greatest transactivation of the target promoter was obtained (maximum activity): stable C2C12 adiponectin promoter-luciferase line, commercial activator (positive control), luciferase read 48 hours after stimulation
Description: To determine the luciferase activity, between 50000 and […] cells were seeded in each well and in a P24 plate in duplicate. After approximately 24 hours, the medium was removed from the cells and each well was washed with PBS 1x (because DMEM interferes in the measurement of the reporter gene activity). 100 µl of luciferase developing agent (Bright-GloTM Luciferase Assay system- Promega) were then added to each well. This reagent carries the reporter gene substrate and luminescence is generated as a product of the enzymatic reaction. […] To record the measurement of luciferase activity, the plate was shaken for 30 seconds right after adding the developing reagent and after 2 minutes, the volume was collected and transferred to a 96-well plate (P96), which was read in an illuminometer using the program with a duration of 5 seconds and the arbitrary luminescence units were recorded for each obtained clone or, in other words, for each stable cell line.
For the screening, 30000 cells per well were seeded in white P96 plates because these plates allow amplifying the luminescence signal and improving the reading. The cells were grown in 100 µl of hygromycin-free medium.
The cells were stimulated with the extracts 24 hours after the seeding in the following conditions: • cells to which only complete medium had been added (baseline transcription), • cells to which medium had been added in which the extracts to be assayed are dissolved (vehicle), • cells to which a known commercial activator of the target promoter had been added, thus having a positive control of the transcriptional activation and of the screening protocol and which are useful as a reference when screening those positive extracts increasing the activity of the promoters to be studied, because they provide an activation ratio which is calculated as follows: by dividing the average luminescence signal increase in the presence of the commercial activator by the average luminescence signal provided by the baseline activity of the target promoter in the presence of the vehicle. […]
The luciferase activity directed by the target promoters was developed 48 hours after the stimulation with the extracts, according to the protocol described in example 4, but modified such that once the medium was removed from the cells and they were washed with PBS 1x, 40 µl of luciferase developing reagent were added to each well and the plate was read after 2 minutes.
Luminescence values measured in RLUs (Relative Luciferase Units) obtained in the presence of each of the marine extracts which have been assayed were then plotted against the average luminescence signal obtained in baseline conditions (in the presence of the vehicle). […]

[2] = test system: C2C12 cells; assay: Toxicity of the commercial activators for the cells in the screening assay; type: cell-based, Mus musculus

| Compound | concentration at which the greatest transactivation of the target promoter was obtained (maximum activity) [1] [µM] | potency in the screening assays (comparison in words) ([1]; comparison of commercial activators of the adiponectin promoter) | toxicity for the cells (comparison in words) [2] |
| --- | --- | --- | --- |
| O=c1c(-c2ccc(O)cc2)coc2cc(O)cc(O)c12 [genistein] | 20 |  |  |
| O=c1c(-c2ccc(O)cc2)coc2cc(O)ccc12 [daidzein] | 20 | more potent than RGZ | less toxic for the cells than Genistein |
| CN(CCOc1ccc(CC2SC(=O)NC2=O)cc1)c1ccccn1 (centres unmarked) [rosiglitazone] | 20 |  |  |
